IC50 data for six compounds are collected here from US20080269204A1, “Compounds and Methods of Use Thereof” (priority 2004, published 2008).

For this assay, the system named is TNF-α production by PMBC. Nature of the assay: Inhibition of TNF-α production by peripheral blood monocyte cells (PMBC), LPS-stimulated. Conditions: 1 ug/mL LPS, 24 hours at 37° C, TNF-α quantified by EIA. The format is cell-based. Here is the method: Inhibition of TNF-α Production By Peripheral Blood Monocyte Cells (PMBC)
PMBC in RPMI 1640 Cell Culture Medium (containing 1% Penicillin and 1% Streptomycin) are aliquoted into 96-well plates at 5×10^5 cells/well and pre-incubated with test compounds for 30 minutes at 37° C. After incubation, 1 ug/mL LPS is added to each well to stimulate TNF-α production and the plate is incubated for 24 hours at 37° C. After incubation, the supernatant is removed and the TNF-α secreted is quantified using EIA detection kits commercially available from R&D Systems (USA). The results from this assay are expressed as percent inhibition of control activity, with the control being stimulated wells with no test compound. Dexamethasone is used as a standard reference compound in the assay and is tested with each experiment. All test compounds are diluted from 10 mM stock solutions in 100% DMSO.
As for `O=C1COc2ccc(F)cc2N1CCCCCB(O)O` [Example 3, 5-(6-fluoro-2,3-dihydro-3-oxobenzo[b][1,4]oxazin-4-yl)pentylboronic acid], the IC50 (as a rule, the concentration that gives 50% inhibition) turned out to be 0.26 µM.

Consider `O=C1CSc2ccccc2N1CCCCCB(O)O` [Example 4, 5-(2,3-dihydro-3-oxobenzo[b][1,4]thiazin-4-yl)pentylboronic acid], for which the IC50 was found to be 0.7 µM.

Compound `O=C1CSc2cc(Cl)ccc2N1CCCCCB(O)O` [Example 5, 5-(7-chloro-2,3-dihydro-3-oxobenzo[b][1,4]thiazin-4-yl)pentylboronic acid] came in with an IC50 of 0.08 µM.

Consider `O=C1COc2cc([N+](=O)[O-])ccc2N1CCCCCB(O)O` [Example 6, 5-(2,3-dihydro-7-nitro-3-oxobenzo[b][1,4]oxazin-4-yl)pentylboronic acid], for which 0.074 µM corresponded to half-maximal inhibition (IC50). The IC50 values of the last two compounds are within 1.5-fold of each other.

`O=C1COc2ccccc2N1CCCCCB(O)O` [Example 7, 5-(2,3-dihydro-3-oxobenzo[b][1,4]oxazin-4-yl)pentylboronic acid] showed a 50% inhibitory concentration (IC50) of 0.36 µM.

`CCOC(=O)CC1Sc2ccccc2N(CCCCCB(O)O)C1=O` (stereo not drawn) [Example 8, ethyl 2-(3,4-dihydro-3-oxo-4-(5-pentylboronic acid)-2H-benzo[b][1,4]thiazin-2-yl)acetate] returned an IC50 of 0.81 µM.
